Assay results: ChEMBL document CHEMBL3124869 (J Med Chem, 2014)
Values belong to the molecule of their own block, whether it stands above or below them.

How the values were obtained:
[1] = physchem; details: octanol/water, pH 7.4
[2] = in vitro; details: dog, MDCK
Description: Intrinsic absorptive permeability from apical to basolateral side of dog RRCK cells

[3] = in vitro; details: human, liver microsomes
Description: Apparent total intrinsic clearance in human liver microsomes

[4] = target: T1, ALK tyrosine kinase receptor (Homo sapiens, UniProt Q9UM73, L1196M)
[5] = target: T1, ALK tyrosine kinase receptor; remark: listed apart in the source
[6] = target: Activated CDC42 kinase 1 (Homo sapiens, UniProt Q07912)
[7] = Volume of distribution at steady state in rat at 1 mg/kg, iv; assay type: ADME, organism-based; set-up: dose 1 mg/kg, route intravenous; details: in vivo, read-out: Vdss
[8] = AUC in rat at 5 mg/kg, po; assay type: ADME, organism-based; set-up: dose 5 mg/kg, route oral; details: plasma
[9] = target: Focal adhesion kinase 1 (Homo sapiens, UniProt Q05397); experiment: Inhibition of PTK2 (unknown origin) using Km levels of ATP
[10] = tested on: Mus musculus; experiment: Toxicity in po dosed athymic nu/nu mouse xenografted with human NCI-H3122 cells harboring ALK L1196M mutant assessed as body weight reduction administered via gavage starting on day 15 post tumor implantation; assay type: organism-based; details: in vivo
[11] = target: High affinity nerve growth factor receptor (Homo sapiens, UniProt P04629); experiment: Inhibition of NTRK1 (unknown origin) using Km levels of ATP
[12] = AUC in rat at 1 mg/kg, iv; assay type: ADME, organism-based; set-up: dose 1 mg/kg, route intravenous; details: plasma
[13] = target: Leukocyte tyrosine kinase receptor (Homo sapiens, UniProt P29376); experiment: Inhibition of LTK (unknown origin) using Km levels of ATP
[14] = Cmax in rat at 5 mg/kg, po; assay type: ADME, organism-based; set-up: dose 5 mg/kg, route oral; details: in vivo
[15] = target: NT-3 growth factor receptor (Homo sapiens, UniProt Q16288); experiment: Inhibition of NTRK3 (unknown origin) using Km levels of ATP
[16] = Oral bioavailability in rat at 5 mg/kg; assay type: ADME, organism-based; details: in vivo
[17] = Half life in rat at 1 mg/kg, iv; assay type: ADME, organism-based; set-up: dose 1 mg/kg, route intravenous; details: in vivo
[18] = target: BDNF/NT-3 growth factors receptor (Homo sapiens, UniProt Q16620); experiment: Inhibition of NTRK2 (unknown origin) using Km levels of ATP
[19] = target: Tyrosine-protein kinase Fes/Fps (Homo sapiens, UniProt P07332); experiment: Inhibition of FES (unknown origin) using Km levels of ATP
[20] = Antitumor activity against human NCI-H3122 cells harboring ALK L1196M mutant xenografted in athymic nu/nu mouse assessed as tumor total growth inhibition at 15 mg/kg, po bid administered via gavage starting on day 15 post tumor implantation; assay type: functional; details: NCI-H3122, 360 h, read-out: TGI
[21] = Tmax in rat at 5 mg/kg, po; assay type: ADME, organism-based; set-up: dose 5 mg/kg, route oral; details: in vivo
[22] = Plasma clearance in rat at 1 mg/kg, iv; assay type: ADME, organism-based; set-up: dose 1 mg/kg, route intravenous
[23] = target: Proto-oncogene tyrosine-protein kinase ROS (Homo sapiens, UniProt P08922); experiment: Inhibition of ROS1 (unknown origin) by Pfizer mobility shift assay
[24] = Antitumor activity against human NCI-H3122 cells harboring ALK L1196M mutant xenografted in athymic nu/nu mouse assessed as tumor total growth inhibition at 30 mg/kg, po qd administered via gavage starting on day 15 post tumor implantation; assay type: functional; details: NCI-H3122, 360 h, read-out: TGI
[25] = target: Tyrosine-protein kinase Fer (Homo sapiens, UniProt P16591); experiment: Inhibition of FER (unknown origin) using Km levels of ATP
[26] = Antitumor activity against human NCI-H3122 cells harboring ALK L1196M mutant xenografted in athymic nu/nu mouse assessed as tumor growth regression at 50 mg/kg, po bid administered via gavage starting on day 15 post tumor implantation measured on day 27; assay type: functional

SMILES: C[C@@H](Oc1cc(-c2cnn(C3CCNCC3)c2)cnc1N)c1cc(F)ccc1Cl
logD [1]: 1.7 | Papp A→B [2]: 2.3 ×10⁻⁶ cm/s | Ki [4]: 5 nM | IC50 [5]: 387 nM | CLint scaled [3]: 27 mL/min/kg

SMILES: Cc1n[nH]cc1-c1cnc(N)c(O[C@@H](C)c2cc(F)ccc2C#N)c1
logD [1]: 2.7 | Papp A→B [2]: 20 ×10⁻⁶ cm/s | CLint scaled [3]: 37 mL/min/kg

SMILES: C[C@@H](Oc1cc(-c2cnnn2C)cnc1N)c1cc(F)ccc1-n1nccn1
logD [1]: 2.4 | Papp A→B [2]: 24 ×10⁻⁶ cm/s | CLint scaled [3]: 3 mL/min/kg

SMILES: C[C@@H](Oc1cc(-c2cn(C)nc2C#N)cnc1N)c1cc(F)ccc1-n1nccn1
logD [1]: 3.3 | Papp A→B [2]: 18 ×10⁻⁶ cm/s | CLint scaled [3]: 22 mL/min/kg

SMILES: C[C@@H](Oc1cc(-c2ccnn2C)cnc1N)c1cc(F)ccc1-n1nccn1
logD [1]: 3.3 | Papp A→B [2]: 22 ×10⁻⁶ cm/s | CLint scaled [3]: 17 mL/min/kg

SMILES: Cc1n[nH]cc1-c1cnc(N)c(O[C@H](C)c2cc(F)ccc2F)c1
logD [1]: 3.4 | Papp A→B [2]: 18 ×10⁻⁶ cm/s | CLint scaled [3]: 31 mL/min/kg

SMILES: Cc1nccn1-c1cnc(N)c(O[C@H](C)c2cc(F)ccc2-n2nccn2)c1
logD [1]: 2.4 | Papp A→B [2]: 21 ×10⁻⁶ cm/s | CLint scaled [3]: 80 mL/min/kg

SMILES: COc1ccc(F)cc1[C@@H](C)Oc1cc(-c2c[nH]nc2C)cnc1N
logD [1]: 3.5 | Papp A→B [2]: 14 ×10⁻⁶ cm/s | CLint scaled [3]: 65 mL/min/kg

SMILES: Cc1nn(C)cc1-c1cnc(N)c(O[C@H](C)c2cc(F)ccc2-n2nccn2)c1
logD [1]: 3.4 | Papp A→B [2]: 27 ×10⁻⁶ cm/s | CLint scaled [3]: 68 mL/min/kg

SMILES: COc1ncccc1-c1cnc(N)c(O[C@H](C)c2cc(F)ccc2-n2nccn2)c1
logD [1]: 3.7 | Papp A→B [2]: 14 ×10⁻⁶ cm/s | CLint scaled [3]: 38 mL/min/kg

SMILES: COc1ncncc1-c1cnc(N)c(O[C@H](C)c2cc(F)ccc2-n2nccn2)c1
logD [1]: 3.1 | Papp A→B [2]: 22 ×10⁻⁶ cm/s | CLint scaled [3]: 49 mL/min/kg

SMILES: Cc1n[nH]cc1-c1cnc(N)c(O[C@H](C)c2cc(F)ccc2-n2nccn2)c1
logD [1]: 3.3 | Papp A→B [2]: 21 ×10⁻⁶ cm/s | CLint scaled [3]: 46 mL/min/kg

Now from value to molecule, other results behind:

logD [1]: 3.6 | Papp A→B [2]: 18 ×10⁻⁶ cm/s | CLint scaled [3]: 23 mL/min/kg
SMILES: Cc1nc(C(C)(C)O)sc1-c1cnc(N)c(O[C@H](C)c2cc(F)ccc2-n2nccn2)c1

IC50 [6]: 15 nM | logD [1]: 2.9 | Vd [7]: 2 L/kg | Papp A→B [2]: 19 ×10⁻⁶ cm/s | AUC [8]: 2.87 µM·h | IC50 [9]: 16 nM | IC50 [11]: 17 nM | AUC [12]: 0.667 µM·h | IC50 [13]: 2 nM | Cmax [14]: 568 nM | IC50 [15]: 18 nM | bioavailability [16]: 86% | half-life [17]: 0.9 h | IC50 [18]: 4 nM | IC50 [19]: 5 nM | Tmax [21]: 1.3 h | clearance [22]: 54 mL/min/kg | Ki [23]: 0.02 nM | CLint scaled [3]: 15 mL/min/kg | IC50 [25]: 2 nM
SMILES: Cc1nc([C@](C)(O)CO)sc1-c1cnc(N)c(O[C@H](C)c2cc(F)ccc2-n2nccn2)c1
Activity [10]: Non-toxic | inhibition in vivo at 15 mg/kg [20]: 100% | inhibition in vivo at 30 mg/kg [24]: 100% | Activity [26]: 56%

logD [1]: 2.6 | Papp A→B [2]: 3.4 ×10⁻⁶ cm/s | CLint scaled [3]: 55 mL/min/kg
SMILES: Cc1nc(C2(O)CN(C)C2)sc1-c1cnc(N)c(O[C@H](C)c2cc(F)ccc2-n2nccn2)c1

logD [1]: 3.3 | Papp A→B [2]: 21 ×10⁻⁶ cm/s | CLint scaled [3]: 138 mL/min/kg
SMILES: Cc1nc(C2(O)CCOC2)sc1-c1cnc(N)c(O[C@H](C)c2cc(F)ccc2-n2nccn2)c1 (single isomer, unassigned)

logD [1]: 2.9 | Papp A→B [2]: 17 ×10⁻⁶ cm/s | CLint scaled [3]: 15 mL/min/kg
SMILES: Cc1nc([C@@](C)(O)CO)sc1-c1cnc(N)c(O[C@H](C)c2cc(F)ccc2-n2nccn2)c1

logD [1]: 3.2 | Papp A→B [2]: 14 ×10⁻⁶ cm/s | CLint scaled [3]: 13 mL/min/kg
SMILES: Cc1nc(C2(O)CCS(=O)(=O)C2)sc1-c1cnc(N)c(O[C@H](C)c2cc(F)ccc2-n2nccn2)c1 (stereo not given in full)

logD [1]: 3.6 | Papp A→B [2]: 14 ×10⁻⁶ cm/s | CLint scaled [3]: 49 mL/min/kg
SMILES: Cc1nc(C(C)(C)O)ccc1-c1cnc(N)c(O[C@H](C)c2cc(F)ccc2-n2nccn2)c1
